Where “and” joins values, the source holds several entries; their conditions need not be identical. Equal values may be shown once.
Assays:
EPHB3 = target: T1, EPHB3 (Homo sapiens, UniProt P54753); conditions: 1 μM; Run 1, Run 2
T1 sequence (P54753 34-998): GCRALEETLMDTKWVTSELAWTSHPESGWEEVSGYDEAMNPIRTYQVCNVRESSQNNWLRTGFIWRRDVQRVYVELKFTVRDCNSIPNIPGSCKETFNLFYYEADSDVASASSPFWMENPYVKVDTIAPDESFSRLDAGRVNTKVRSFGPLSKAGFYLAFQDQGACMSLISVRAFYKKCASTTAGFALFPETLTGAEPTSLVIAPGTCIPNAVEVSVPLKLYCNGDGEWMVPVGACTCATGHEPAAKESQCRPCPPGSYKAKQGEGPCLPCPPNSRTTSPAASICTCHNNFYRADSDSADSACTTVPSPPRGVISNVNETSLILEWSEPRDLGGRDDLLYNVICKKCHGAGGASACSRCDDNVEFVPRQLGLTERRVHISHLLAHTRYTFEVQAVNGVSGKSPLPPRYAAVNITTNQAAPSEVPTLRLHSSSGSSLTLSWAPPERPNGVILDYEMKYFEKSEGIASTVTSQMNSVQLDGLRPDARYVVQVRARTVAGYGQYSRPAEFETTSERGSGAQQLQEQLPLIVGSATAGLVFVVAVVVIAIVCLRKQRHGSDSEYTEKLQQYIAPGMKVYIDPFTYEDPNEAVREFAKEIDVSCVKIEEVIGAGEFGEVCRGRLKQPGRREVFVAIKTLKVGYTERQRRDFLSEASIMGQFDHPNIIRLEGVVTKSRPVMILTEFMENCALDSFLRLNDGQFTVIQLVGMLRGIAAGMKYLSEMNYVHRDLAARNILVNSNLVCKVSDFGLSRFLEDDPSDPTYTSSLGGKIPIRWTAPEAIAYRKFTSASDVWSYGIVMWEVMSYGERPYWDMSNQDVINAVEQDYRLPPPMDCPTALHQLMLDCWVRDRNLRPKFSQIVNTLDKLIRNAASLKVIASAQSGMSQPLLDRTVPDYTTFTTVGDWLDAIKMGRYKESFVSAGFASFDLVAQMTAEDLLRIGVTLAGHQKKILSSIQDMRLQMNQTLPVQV

MARK3 = MARK3 (Homo sapiens, UniProt P27448); conditions: 1 μM; Run 1, Run 2
Sequence of MARK3 (P27448 whole entry): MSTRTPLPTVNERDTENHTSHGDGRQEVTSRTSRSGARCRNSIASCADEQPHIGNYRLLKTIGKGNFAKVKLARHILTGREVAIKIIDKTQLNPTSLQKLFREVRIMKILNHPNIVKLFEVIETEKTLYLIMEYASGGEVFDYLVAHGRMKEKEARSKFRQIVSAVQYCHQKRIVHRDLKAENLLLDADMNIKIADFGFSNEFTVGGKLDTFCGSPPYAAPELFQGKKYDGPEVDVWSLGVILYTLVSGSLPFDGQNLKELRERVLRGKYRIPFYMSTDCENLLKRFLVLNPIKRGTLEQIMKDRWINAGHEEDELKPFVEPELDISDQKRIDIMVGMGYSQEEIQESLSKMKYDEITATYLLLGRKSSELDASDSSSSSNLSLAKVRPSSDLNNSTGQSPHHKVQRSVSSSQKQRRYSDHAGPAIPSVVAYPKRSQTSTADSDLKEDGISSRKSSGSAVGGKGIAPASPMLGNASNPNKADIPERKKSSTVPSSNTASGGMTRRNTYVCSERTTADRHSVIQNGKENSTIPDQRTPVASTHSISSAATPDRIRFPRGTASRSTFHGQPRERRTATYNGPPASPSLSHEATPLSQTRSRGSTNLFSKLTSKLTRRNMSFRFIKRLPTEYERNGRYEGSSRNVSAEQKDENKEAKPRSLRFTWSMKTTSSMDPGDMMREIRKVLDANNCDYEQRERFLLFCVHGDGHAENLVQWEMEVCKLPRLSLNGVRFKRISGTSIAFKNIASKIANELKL

SRPK1 = SRPK1 (Homo sapiens, UniProt Q96SB4); conditions: 1 μM; Run 1, Run 2
Sequence of SRPK1 (Q96SB4 whole entry): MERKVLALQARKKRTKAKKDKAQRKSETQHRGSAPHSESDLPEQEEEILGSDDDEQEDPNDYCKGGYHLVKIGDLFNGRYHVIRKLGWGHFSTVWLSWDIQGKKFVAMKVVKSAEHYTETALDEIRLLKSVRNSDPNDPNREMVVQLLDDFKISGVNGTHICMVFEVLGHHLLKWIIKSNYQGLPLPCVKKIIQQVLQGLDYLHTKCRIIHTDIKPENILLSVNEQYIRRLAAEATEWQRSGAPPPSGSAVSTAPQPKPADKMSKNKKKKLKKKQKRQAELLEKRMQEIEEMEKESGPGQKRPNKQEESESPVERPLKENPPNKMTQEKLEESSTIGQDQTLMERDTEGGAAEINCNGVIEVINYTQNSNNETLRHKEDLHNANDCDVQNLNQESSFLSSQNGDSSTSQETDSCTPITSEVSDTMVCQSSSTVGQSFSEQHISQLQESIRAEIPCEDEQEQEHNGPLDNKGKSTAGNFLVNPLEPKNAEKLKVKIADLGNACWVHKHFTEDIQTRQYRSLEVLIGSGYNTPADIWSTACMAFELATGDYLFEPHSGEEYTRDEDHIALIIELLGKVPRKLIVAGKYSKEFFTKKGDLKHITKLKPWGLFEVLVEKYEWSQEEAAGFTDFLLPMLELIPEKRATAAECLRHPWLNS

TAOK3/JIK = target: T2, TAOK3/JIK (Homo sapiens, UniProt Q9H2K8); conditions: 1 μM; Run 1, Run 2
T2 sequence (Q9H2K8 1-898): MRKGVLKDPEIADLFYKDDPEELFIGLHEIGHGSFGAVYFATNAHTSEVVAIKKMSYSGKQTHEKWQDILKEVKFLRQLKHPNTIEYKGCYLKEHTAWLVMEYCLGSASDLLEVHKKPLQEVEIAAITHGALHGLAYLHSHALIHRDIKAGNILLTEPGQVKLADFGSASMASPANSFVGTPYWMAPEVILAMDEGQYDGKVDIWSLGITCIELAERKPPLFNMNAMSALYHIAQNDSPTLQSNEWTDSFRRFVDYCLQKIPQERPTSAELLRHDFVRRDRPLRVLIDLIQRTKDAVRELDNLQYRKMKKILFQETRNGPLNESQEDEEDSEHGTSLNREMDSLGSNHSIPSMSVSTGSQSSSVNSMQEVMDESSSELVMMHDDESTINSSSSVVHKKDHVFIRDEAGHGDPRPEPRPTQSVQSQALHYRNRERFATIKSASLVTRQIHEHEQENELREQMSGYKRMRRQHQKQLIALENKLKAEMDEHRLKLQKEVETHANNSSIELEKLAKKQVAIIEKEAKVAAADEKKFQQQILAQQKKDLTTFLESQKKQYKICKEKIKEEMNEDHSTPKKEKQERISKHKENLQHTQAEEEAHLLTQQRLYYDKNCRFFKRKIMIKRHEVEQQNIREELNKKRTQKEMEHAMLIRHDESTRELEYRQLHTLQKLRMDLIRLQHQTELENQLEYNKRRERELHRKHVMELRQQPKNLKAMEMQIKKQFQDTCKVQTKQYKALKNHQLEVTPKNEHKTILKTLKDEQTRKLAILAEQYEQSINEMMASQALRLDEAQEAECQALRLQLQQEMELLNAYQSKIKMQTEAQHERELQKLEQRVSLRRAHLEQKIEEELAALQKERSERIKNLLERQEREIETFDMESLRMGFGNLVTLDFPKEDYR

TBK1 = target: T3, TBK1 (Homo sapiens, UniProt Q9UHD2); conditions: 1 μM; Run 1, Run 2
T3 sequence (Q9UHD2 1-729): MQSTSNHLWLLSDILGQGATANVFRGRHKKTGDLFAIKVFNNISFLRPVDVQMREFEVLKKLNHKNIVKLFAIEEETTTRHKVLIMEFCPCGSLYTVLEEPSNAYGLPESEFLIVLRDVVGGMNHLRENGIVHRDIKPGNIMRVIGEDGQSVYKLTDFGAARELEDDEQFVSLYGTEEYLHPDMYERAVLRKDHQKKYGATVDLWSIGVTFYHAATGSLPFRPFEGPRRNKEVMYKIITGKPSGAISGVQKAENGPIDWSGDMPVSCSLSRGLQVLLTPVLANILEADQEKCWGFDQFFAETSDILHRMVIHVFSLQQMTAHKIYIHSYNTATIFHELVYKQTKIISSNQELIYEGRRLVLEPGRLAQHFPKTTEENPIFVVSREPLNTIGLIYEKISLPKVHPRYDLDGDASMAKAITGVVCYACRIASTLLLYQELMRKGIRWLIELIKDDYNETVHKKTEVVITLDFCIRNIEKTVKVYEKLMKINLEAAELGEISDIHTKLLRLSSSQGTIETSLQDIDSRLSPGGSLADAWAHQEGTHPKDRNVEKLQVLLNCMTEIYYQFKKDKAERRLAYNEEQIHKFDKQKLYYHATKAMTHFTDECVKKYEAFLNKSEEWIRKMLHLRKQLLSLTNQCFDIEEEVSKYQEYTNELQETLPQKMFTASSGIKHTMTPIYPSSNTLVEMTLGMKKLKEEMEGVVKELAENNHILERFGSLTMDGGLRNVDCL

CK1epsilon = CK1epsilon (Homo sapiens, UniProt P49674); assay: biochemical; conditions: read-out: % enzyme activity, 1 μM; Run 1, Run 2
Sequence of CK1epsilon (P49674 whole entry): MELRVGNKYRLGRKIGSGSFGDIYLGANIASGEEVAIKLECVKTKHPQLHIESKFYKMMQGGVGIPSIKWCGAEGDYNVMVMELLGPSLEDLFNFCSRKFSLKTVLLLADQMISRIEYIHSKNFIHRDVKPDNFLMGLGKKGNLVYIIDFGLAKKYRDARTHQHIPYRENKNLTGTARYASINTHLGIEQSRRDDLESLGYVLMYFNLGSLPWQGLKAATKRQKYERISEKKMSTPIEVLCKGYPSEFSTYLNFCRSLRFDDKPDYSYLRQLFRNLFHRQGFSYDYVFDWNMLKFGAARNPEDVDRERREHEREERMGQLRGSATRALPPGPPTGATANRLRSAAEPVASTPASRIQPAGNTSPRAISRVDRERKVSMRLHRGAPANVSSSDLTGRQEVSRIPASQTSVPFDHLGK

Compound | % enzyme activity at 1 μM (DDR1) | % enzyme activity (EPHB3) [%] | % enzyme activity (MARK3) [%] | % enzyme activity (SRPK1) [%] | % enzyme activity (TAOK3/JIK) [%] | % enzyme activity (TBK1) [%] | remaining activity at 1 µM (CK1epsilon) [%]
COc1cc(-c2cncc(-c3ccc(N4CCN(C)CC4)cc3)c2C)cc(F)c1C(N)=O [Compound 26a, 2-Fluoro-6-methoxy-4-(4-methyl-5-(4-(4-methylpiperazin-1-yl)phenyl)pyridin-3-yl)benzamide] | 32.1% and 31.2% | 95.16 | 82.91 | 105.40 | 69.26 | 92.56 | 93.8
COc1cc(-c2cncc(-c3ccc(N4C[C@@H](C)N(C)[C@@H](C)C4)cc3)c2C)cc(F)c1C(N)=O [Compound 26c, 2-Fluoro-6-methoxy-4-(4-methyl-5-(4-((3R,5S)-3,4,5-trimethylpiperazin-1-yl)phenyl)pyridin-3-yl)benzamide] | 57.2% and 55.5% | 96.08 | 93.66 | 81.70 | 81.51 | 85.62 | 94.7
